# Results as given in ChEMBL document CHEMBL1201862, “PubChem BioAssay data set” (2004).
#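 Values below derive from 48-hour exposures of cells grown in 96-well plates, with endpoints linearly interpolated between the two concentrations bracketing the appropriate inhibition level. Abbreviation: GI50, concentration required for 50% inhibition of growth.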 Activity calls are given as the source filed them. No stated cut-off is given here; in the data, active = GI50 up to about 1.1 µM and inactive = higher.
# Experiments:
# Experiment in all cases: inhibition of tumour cell growth, NCI panel, 48 h
# M19-MEL = test system: M19-MEL
# DLD-1 = test system: DLD-1
# DMS-114 = test system: DMS-114
# KM-20L2 = test system: KM-20L2
# HOP-18 = test system: HOP-18
# LXFL 529 = test system: LXFL 529
# SNB-78 = test system: SNB-78
# BT-549 = test system: BT-549
# RXF 631 = test system: RXF 631
structure (smiles),measurement,setting,value
COc1c(C)c2c(c3c1c(=O)c1ccccc1n3C)C=CC(C)(C)O2,GI50,M19-MEL,31.7 µM (inactive)
same,GI50,DLD-1,34.5 µM (inactive)
same,GI50,DMS-114,14.5 µM (inactive)
same,GI50,KM-20L2,16.4 µM (inactive)
same,GI50,HOP-18,38.1 µM (inactive)
same,GI50,LXFL 529,26 µM (inactive)
same,GI50,SNB-78,31.7 µM (inactive)
Cn1cnc([N+](=O)[O-])c1Sc1nncc2[nH]cnc12,GI50,BT-549,> 100 µM (inactive)
CC(=O)/C=C/CCC(=O)/C=C/C(=O)OC(CCC(=O)/C=C/C(=O)O)CC(C)=O (stereo not drawn),GI50,BT-549,> 100 µM (inactive)
CC(=O)Nc1ccc(C(=O)N[C@@H]2C(=O)N3[C@@H]2SC(C)(C)[C@@H]3C(=O)O)cn1,GI50,BT-549,> 100 µM (inactive)
CO[C@H]1/C=C/O[C@@]2(C)Oc3c(C)c(O)c4c(O)c(c(/C=N/N5CCN(C)CC5)c(O)c4c3C2=O)NC(=O)/C(C)=C\C=C\[C@H](C)[C@H](O)[C@@H](C)[C@@H](O)[C@@H](C)[C@H](OC(C)=O)[C@@H]1C [RIFAMPIN],GI50,BT-549,62.8 µM (inactive)
O=c1c2cc(Br)ccc2nc(-c2ccccc2)n1NCC1(O)OCC(O)C(O)C1O (stereo not drawn),GI50,M19-MEL,> 100 µM (inactive)
same,GI50,DMS-114,> 100 µM (inactive)
same,GI50,KM-20L2,> 100 µM (inactive)
same,GI50,LXFL 529,92 µM (inactive)
same,GI50,SNB-78,> 100 µM (inactive)
CC(C)(C)OC(=O)Cn1ncn(NC(=O)Cc2ccccc2)c1=S,GI50,BT-549,> 10 µM (inactive)
COC(=O)c1ccccc1CC1Cc2ccc3c(c2C1=O)CCCC3 (stereo not drawn),GI50,BT-549,49.1 µM (inactive)
O=C(O)CCC(=O)OCN1C(=O)C2C3C=CC(C2C1=O)C1C2C(=O)N(COC(=O)CCC(=O)O)C(=O)C2C31 (stereo not drawn),GI50,M19-MEL,> 61.1 µM (inactive)
same,GI50,DLD-1,> 57.7 µM (inactive)
same,GI50,DMS-114,> 48.1 µM (inactive)
same,GI50,KM-20L2,> 100 µM (inactive)
same,GI50,HOP-18,76.9 µM (inactive)
same,GI50,LXFL 529,> 100 µM (inactive)
same,GI50,SNB-78,> 100 µM (inactive)
CCC1C(c2cc(OC)c(OC)c(OC)c2)c2cc3c(cc2OC1N1CCCC1)OCO3 (stereo not drawn),GI50,BT-549,4.06 µM (inactive)
Cc1ccc(S(=O)(=O)OI(O)CC(F)(F)F)cc1,GI50,BT-549,> 100 µM (inactive)
Nn1c(S)nnc1CCCCCCCCc1nnc(S)n1N,GI50,BT-549,> 100 µM (inactive)
Cc1cccc(NC(=O)c2cccc([N+](=O)[O-])c2O)c1C,GI50,M19-MEL,21.9 µM (inactive)
same,GI50,DLD-1,27.3 µM (inactive)
same,GI50,BT-549,30.2 µM (inactive)
same,GI50,DMS-114,32.4 µM (inactive)
same,GI50,KM-20L2,21.8 µM (inactive)
same,GI50,HOP-18,4.74 µM (inactive)
same,GI50,LXFL 529,34 µM (inactive)
same,GI50,SNB-78,85.5 µM (inactive)
Cc1cc(=O)[nH]c2cc(NC(=O)C(C)NC(=O)C(C)NC(=O)C(C)NC(=O)OC(C)(C)C)ccc12 (stereo not drawn),GI50,BT-549,> 15 µM (inactive)
O=C(O)c1ccccc1Sc1ccccc1[N+](=O)[O-],GI50,BT-549,> 100 µM (inactive)
CCOC(=O)C1C(c2ccc(O)c(OC)c2)c2c(n[nH]c2O)CC1(C)O (stereo not drawn),GI50,BT-549,0.0159 µM (active)
OCC(O)C(OC1OC(CO)C(O)C(O)C1O)c1nn(-c2ccccc2)c2nc3cc(Cl)c(Cl)cc3cc12 (stereo not drawn),GI50,M19-MEL,> 100 µM (inactive)
same,GI50,DLD-1,> 100 µM (inactive)
same,GI50,KM-20L2,> 100 µM (inactive)
same,GI50,RXF 631,> 100 µM (inactive)
same,GI50,LXFL 529,> 100 µM (inactive)
same,GI50,SNB-78,> 100 µM (inactive)
O=C(/C=C/c1ccccc1)CCN1CCN(CCC(=O)/C=C/c2ccccc2)CC1,GI50,BT-549,15.1 µM (inactive)
CC(=O)O[C@H]1C(=O)[C@@]2(C)[C@H]([C@H](OC(=O)C3CCCCC3)[C@]3(O)C[C@H](OC(=O)[C@H](O)[C@@H](NC(=O)C4CCCCC4)C4CCCCC4)C(C)=C1C3(C)C)[C@]1(OC(C)=O)CO[C@@H]1C[C@@H]2O,GI50,BT-549,0.0556 µM (active)
N#Cc1ccccc1NC(=O)/C(=N\N)C(C(=O)c1ccncc1)C1OC(=O)c2ccccc21 (stereo not drawn),GI50,M19-MEL,> 100 µM (inactive)
same,GI50,KM-20L2,> 100 µM (inactive)
same,GI50,LXFL 529,> 100 µM (inactive)
O=c1[nH]nc(-c2cccc(Br)c2)[nH]1,GI50,BT-549,4.74 µM (inactive)
COc1ccc(Nc2nc3c(N)cc(C(F)(F)F)cc3nc2-c2ccccc2)cc1OC,GI50,M19-MEL,22.5 µM (inactive)
same,GI50,DLD-1,22.7 µM (inactive)
same,GI50,KM-20L2,36.9 µM (inactive)
same,GI50,HOP-18,13.7 µM (inactive)
same,GI50,LXFL 529,15.3 µM (inactive)
same,GI50,SNB-78,28.3 µM (inactive)
COc1ccc(/C(=C\c2cc(OC)c(OC)c(OC)c2)C(=O)O)cc1,GI50,M19-MEL,52 µM (inactive)
same,GI50,DLD-1,40.1 µM (inactive)
same,GI50,DMS-114,25.2 µM (inactive)
same,GI50,KM-20L2,21 µM (inactive)
same,GI50,HOP-18,> 100 µM (inactive)
same,GI50,LXFL 529,41 µM (inactive)
same,GI50,SNB-78,39 µM (inactive)
CCCCCCCCCCCCN(CC(O)C(O)C(OC1OC(CO)C(O)C(O)C1O)C(O)CO)C(=O)CCCCCCCCCCC (stereo not drawn),GI50,BT-549,20.4 µM (inactive)
O=C(NC(CS)C(=O)O)c1c2ccccc2nc2ccccc12 (stereo not drawn),GI50,BT-549,12.8 µM (inactive)
S=c1[nH]c2ccc(Br)cc2c(=S)s1,GI50,BT-549,29.9 µM (inactive)
CCOP(=O)(OCC)/C(C#N)=C/c1ccnc2ccccc12,GI50,BT-549,23.9 µM (inactive)
O=C1C(Br)=CC2(C=C1Br)CCNC1=C2C(=O)c2ncccc2C1=O,GI50,BT-549,1.42 µM (inactive)
CCOC(=O)c1cc(=O)n(C)c(=O)n1C,GI50,M19-MEL,> 100 µM (inactive)
same,GI50,DLD-1,> 100 µM (inactive)
same,GI50,KM-20L2,> 100 µM (inactive)
same,GI50,HOP-18,> 100 µM (inactive)
same,GI50,LXFL 529,> 100 µM (inactive)
same,GI50,SNB-78,> 100 µM (inactive)
O=C1OC(OC/C(Br)=C(\Br)COC2OC(=O)C(Cl)=C2Cl)C(Cl)=C1Cl (stereo not drawn),GI50,BT-549,2.67 µM (inactive)
COC(=O)c1cc2ccc(N)nc2[nH]c1=O,GI50,BT-549,> 100 µM (inactive)
N#C[C@](CO)(NC(=O)OCc1ccccc1)C(F)F,GI50,BT-549,> 100 µM (inactive)
Nc1ccc(CCN2CCN(CCCc3ccccc3)CC2)cc1,GI50,BT-549,80.7 µM (inactive)
O=C(O)CNc1ccc2c(c1)Cc1cc(Br)ccc1-2,GI50,BT-549,23.3 µM (inactive)
O=C(Nc1ccc(Cl)cc1)Oc1ccc(C(=S)Nc2ccc(Br)cc2)cc1,GI50,BT-549,17.9 µM (inactive)
Cc1ccc(S(=O)(=O)N/N=C/C(Br)=C(/Br)C(=O)O)cc1,GI50,BT-549,6.55 µM (inactive)
CCOC(=O)C1(F)S(=O)(=O)OCCOS1(=O)=O,GI50,BT-549,> 100 µM (inactive)
